Measurements as given in ChEMBL document CHEMBL1201862, “PubChem BioAssay data set” (2004).
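Five concentrations, 48 hours, 96-well plates. GI50: concentration for 50% inhibition of growth.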 Activity calls are given as the source filed them. No stated cut-off is given here; in the data, active = GI50 up to about 1.1 µM and inactive = higher.

How the values were obtained:
Assay in all cases: NCI-60 cell line screen, 48 h
786-0 = tested on: 786-0
A498 = tested on: A498
A549 = tested on: A549
BT-549 = tested on: BT-549
CAKI-1 = tested on: CAKI-1
CCRF-CEM = tested on: CCRF-CEM
COLO 205 = tested on: COLO 205
DU-145 = tested on: DU-145
HCT-116 = tested on: HCT-116
HCT-15 = tested on: HCT-15
HL-60 = tested on: HL-60
HOP-62 = tested on: HOP-62
HT-29 = tested on: HT-29
Hs-578T = tested on: Hs-578T
IGROV-1 = tested on: IGROV-1
K562 = tested on: K562
KM12 = tested on: KM12
LOX IMVI = tested on: LOX IMVI
M14 = tested on: M14
MCF7 = tested on: MCF7
MDA-MB-231 = tested on: MDA-MB-231
MDA-MB-435 = tested on: MDA-MB-435
MDA-N = tested on: MDA-N
MOLT-4 = tested on: MOLT-4
Malme-3M = tested on: Malme-3M
NCI-H226 = tested on: NCI-H226
NCI-H23 = tested on: NCI-H23
NCI-H460 = tested on: NCI-H460
NCI/ADR-RES = tested on: NCI/ADR-RES
OVCAR-3 = tested on: OVCAR-3
OVCAR-4 = tested on: OVCAR-4
OVCAR-8 = tested on: OVCAR-8
PC-3 = tested on: PC-3
RPMI-8226 = tested on: RPMI-8226
RXF 393 = tested on: RXF 393
SF-268 = tested on: SF-268
SF-295 = tested on: SF-295
SF-539 = tested on: SF-539
SK-MEL-28 = tested on: SK-MEL-28
SK-MEL-2 = tested on: SK-MEL-2
SK-MEL-5 = tested on: SK-MEL-5
SK-OV-3 = tested on: SK-OV-3
SN12C = tested on: SN12C
SNB-19 = tested on: SNB-19
SNB-75 = tested on: SNB-75
SR = tested on: SR
SW-620 = tested on: SW-620
TK-10 = tested on: TK-10
U-251 = tested on: U-251
UACC-257 = tested on: UACC-257
UACC-62 = tested on: UACC-62
UO-31 = tested on: UO-31
ACHN = tested on: ACHN
EKVX = tested on: EKVX
HCC 2998 = tested on: HCC 2998
HOP-92 = tested on: HOP-92
NCI-H522 = tested on: NCI-H522
OVCAR-5 = tested on: OVCAR-5
T47D = tested on: T47D

With COc1ccc(-n2c3c(c4cc(O)ccc42)Cc2ccccc2C3=O)cc1 the GI50 (786-0) was 50.2 µM (inactive), the GI50 (A498) was 90.6 µM (inactive) and the GI50 (A549) was 35.6 µM (inactive). For the same compound, the GI50 (BT-549) was > 100 µM (inactive), the GI50 (CAKI-1) was 30.2 µM (inactive) and the GI50 (CCRF-CEM) was 4.9 µM (inactive). The GI50 (COLO 205) was 11.7 µM (inactive), the GI50 (DU-145) was > 100 µM (inactive) and the GI50 (HCT-116) was 27.6 µM (inactive). For the same compound, the GI50 (HCT-15) was 25.1 µM, the GI50 (HL-60) was > 100 µM (inactive) and the GI50 (HOP-62) was 42.7 µM (inactive). The GI50 (HT-29) was 53.2 µM (inactive), the GI50 (Hs-578T) was > 100 µM (inactive) and the GI50 (IGROV-1) was 29.7 µM (inactive). For the same compound, the GI50 (K562) was 31.3 µM (inactive), the GI50 (KM12) was 28.8 µM (inactive) and the GI50 (LOX IMVI) was 35.9 µM (inactive). The GI50 (M14) was 38.2 µM (inactive), the GI50 (MCF7) was 9.16 µM (inactive) and the GI50 (MDA-MB-231) was 20.1 µM (inactive). For the same compound, the GI50 (MDA-MB-435) was 64.6 µM (inactive), the GI50 (MDA-N) was 65.6 µM (inactive) and the GI50 (MOLT-4) was 11.5 µM (inactive). The GI50 (Malme-3M) was > 100 µM (inactive), the GI50 (NCI-H226) was 63.7 µM (inactive) and the GI50 (NCI-H23) was > 100 µM (inactive). For the same compound, the GI50 (NCI-H460) was 16.1 µM (inactive), the GI50 (NCI/ADR-RES) was 73.8 µM (inactive) and the GI50 (OVCAR-3) was 21.4 µM (inactive). For the same compound, the GI50 (OVCAR-4) was 7.83 µM (inactive), the GI50 (OVCAR-8) was 48 µM (inactive) and the GI50 (PC-3) was 2.2 µM (inactive). For the same compound, the GI50 (RPMI-8226) was 3.76 µM (inactive), the GI50 (RXF 393) was < 0.01 µM (active) and the GI50 (SF-268) was 26.6 µM (inactive). The GI50 (SF-295) was 16.5 µM (inactive), the GI50 (SF-539) was 34.9 µM (inactive) and the GI50 (SK-MEL-28) was 28.1 µM (inactive). The GI50 (SK-MEL-2) was 65.3 µM (inactive), the GI50 (SK-MEL-5) was 39.2 µM (inactive) and the GI50 (SK-OV-3) was 16 µM (inactive). For the same compound, the GI50 (SN12C) was 57.3 µM (inactive), the GI50 (SNB-19) was > 100 µM (inactive) and the GI50 (SNB-75) was 2.19 µM (inactive). The GI50 (SR) was 41.9 µM (inactive), the GI50 (SW-620) was 57 µM (inactive) and the GI50 (TK-10) was 58.7 µM (inactive). The GI50 (U-251) was 45.2 µM (inactive), the GI50 (UACC-257) was > 100 µM (inactive) and the GI50 (UACC-62) was 48.5 µM (inactive). For the same compound, the GI50 (UO-31) was > 100 µM (inactive).
For COC1=CC23CCCN2CCc2cc4c(cc2C3C1O)OCO4 (stereo not drawn), the GI50 (786-0) was 44.9 µM (inactive), the GI50 (A498) was 59.3 µM (inactive) and the GI50 (A549) was 36.4 µM (inactive). For the same compound, the GI50 (ACHN) was 22.3 µM (inactive), the GI50 (BT-549) was > 100 µM (inactive) and the GI50 (CAKI-1) was 31.4 µM (inactive). For the same compound, the GI50 (CCRF-CEM) was 41.2 µM (inactive), the GI50 (COLO 205) was 24.5 µM (inactive) and the GI50 (DU-145) was 43 µM (inactive). For the same compound, the GI50 (EKVX) was 52.5 µM (inactive), the GI50 (HCC 2998) was 70.3 µM (inactive) and the GI50 (HCT-116) was 44.5 µM (inactive). For the same compound, the GI50 (HCT-15) was 41.8 µM, the GI50 (HL-60) was 25.8 µM (inactive) and the GI50 (HOP-92) was > 100 µM (inactive). For the same compound, the GI50 (HT-29) was 39.4 µM (inactive), the GI50 (Hs-578T) was 82 µM (inactive) and the GI50 (IGROV-1) was 28.8 µM (inactive). The GI50 (K562) was > 10 µM (inactive), the GI50 (KM12) was 47 µM (inactive) and the GI50 (LOX IMVI) was 37.1 µM (inactive). For the same compound, the GI50 (M14) was > 100 µM (inactive), the GI50 (MCF7) was 48.5 µM (inactive) and the GI50 (MDA-MB-231) was > 100 µM (inactive). For the same compound, the GI50 (MDA-MB-435) was > 100 µM (inactive), the GI50 (MOLT-4) was 66.7 µM (inactive) and the GI50 (Malme-3M) was 43 µM (inactive). For the same compound, the GI50 (NCI-H226) was > 100 µM (inactive), the GI50 (NCI-H23) was 62.8 µM (inactive) and the GI50 (NCI-H460) was 36 µM (inactive). For the same compound, the GI50 (NCI-H522) was 29.2 µM (inactive), the GI50 (NCI/ADR-RES) was > 100 µM (inactive) and the GI50 (OVCAR-4) was 44.6 µM (inactive). For the same compound, the GI50 (OVCAR-5) was > 100 µM (inactive), the GI50 (OVCAR-8) was > 100 µM (inactive) and the GI50 (PC-3) was 59.3 µM (inactive). The GI50 (SF-268) was 50.2 µM (inactive), the GI50 (SF-295) was 36.1 µM (inactive) and the GI50 (SF-539) was 40.6 µM (inactive). The GI50 (SK-MEL-28) was > 100 µM (inactive), the GI50 (SK-MEL-2) was 54.2 µM (inactive) and the GI50 (SK-MEL-5) was 20 µM (inactive). For the same compound, the GI50 (SK-OV-3) was 27 µM (inactive), the GI50 (SN12C) was 57.5 µM (inactive) and the GI50 (SNB-19) was 20.3 µM (inactive). The GI50 (SNB-75) was 78.2 µM (inactive), the GI50 (SW-620) was 66.1 µM (inactive) and the GI50 (T47D) was 92.5 µM (inactive). For the same compound, the GI50 (TK-10) was > 100 µM (inactive), the GI50 (U-251) was > 100 µM (inactive) and the GI50 (UACC-257) was > 100 µM (inactive). For the same compound, the GI50 (UACC-62) was > 100 µM (inactive) and the GI50 (UO-31) was 48 µM (inactive).
With CC(=O)OCC1OC(OCCCCCCO)C(OC(C)=O)C(OC(C)=O)C1OC(C)=O (stereo not drawn) the GI50 (A498) was > 100 µM (inactive), the GI50 (A549) was > 100 µM (inactive) and the GI50 (ACHN) was > 100 µM (inactive). For the same compound, the GI50 (BT-549) was > 100 µM (inactive), the GI50 (CAKI-1) was > 100 µM (inactive) and the GI50 (CCRF-CEM) was > 100 µM (inactive). The GI50 (EKVX) was > 100 µM (inactive), the GI50 (HCC 2998) was > 100 µM (inactive) and the GI50 (HCT-116) was > 100 µM (inactive). The GI50 (HCT-15) was over 100 µM, the GI50 (HL-60) was > 100 µM (inactive) and the GI50 (HOP-62) was > 100 µM (inactive). The GI50 (HOP-92) was > 100 µM (inactive), the GI50 (HT-29) was > 100 µM (inactive) and the GI50 (Hs-578T) was > 100 µM (inactive). The GI50 (IGROV-1) was > 100 µM (inactive), the GI50 (K562) was > 100 µM (inactive) and the GI50 (KM12) was > 100 µM (inactive). For the same compound, the GI50 (LOX IMVI) was > 100 µM (inactive), the GI50 (M14) was > 100 µM (inactive) and the GI50 (MCF7) was > 100 µM (inactive). The GI50 (MDA-MB-231) was > 100 µM (inactive), the GI50 (MDA-MB-435) was > 100 µM (inactive) and the GI50 (MDA-N) was > 100 µM (inactive). The GI50 (MOLT-4) was > 100 µM (inactive), the GI50 (NCI-H226) was > 100 µM (inactive) and the GI50 (NCI-H23) was > 100 µM (inactive). The GI50 (NCI-H460) was > 100 µM (inactive), the GI50 (NCI-H522) was > 100 µM (inactive) and the GI50 (NCI/ADR-RES) was > 100 µM (inactive). The GI50 (OVCAR-3) was > 100 µM (inactive), the GI50 (OVCAR-4) was > 100 µM (inactive) and the GI50 (OVCAR-5) was > 100 µM (inactive). The GI50 (OVCAR-8) was > 100 µM (inactive), the GI50 (PC-3) was > 100 µM (inactive) and the GI50 (RPMI-8226) was > 100 µM (inactive). The GI50 (RXF 393) was > 100 µM (inactive), the GI50 (SF-268) was > 100 µM (inactive) and the GI50 (SF-295) was > 100 µM (inactive). The GI50 (SF-539) was > 100 µM (inactive), the GI50 (SK-MEL-28) was > 100 µM (inactive) and the GI50 (SK-MEL-2) was > 100 µM (inactive). The GI50 (SK-OV-3) was > 100 µM (inactive), the GI50 (SN12C) was > 100 µM (inactive) and the GI50 (SNB-19) was > 100 µM (inactive). For the same compound, the GI50 (SNB-75) was > 100 µM (inactive), the GI50 (SR) was > 100 µM (inactive) and the GI50 (SW-620) was > 100 µM (inactive). The GI50 (TK-10) was > 100 µM (inactive), the GI50 (U-251) was > 100 µM (inactive) and the GI50 (UACC-257) was > 100 µM (inactive). The GI50 (UACC-62) was > 100 µM (inactive) and the GI50 (UO-31) was > 100 µM (inactive).
